Columns and labels:
Format in all cases: binding
TEAD1 = TEAD1 (Homo sapiens, UniProt P28347); experiment: Lipid HTRF (TR-FRET lipid pocket probe competition), 30 min pre-incubation, TEAD1; details: His-tagged TEAD1, 30 minutes pre-incubation with compound at room temperature; read-out: Lipid HTRF TEAD1 IC50
Description: (§1) His-tagged TEAD proteins are pre-incubated with TEAD project compounds for 30 minutes at room temperature. Biotinylated lipid pocket probes are then added to the TEAD/Compound mixture and incubated for 60 minutes at room temperature. The lipid pocket probe competes with the test compound for the TEAD lipid pocket until equilibrium is reached. After 60 minutes, Europium labelled anti-His (Perkin Elmer #AD0110) and XL665 labelled streptavidin (CIS Bio 610SAXAC) are added to the TEAD/test compound/lipid pocket mixture and incubated for 30 minutes. […] If a TEAD lipid pocket binder such as binds and displaces the lipid pocket probe, the disruption of the TEAD:probe interaction results in a decrease in TR-FRET signal. The potency of compounds as TEAD lipid pocket binders is determined by IC50 value generated using a non-linear 4 parameter curve fit.

TEAD2 [1] = target: T1, TEAD2 (Homo sapiens, UniProt Q15562); experiment: Lipid HTRF (TR-FRET lipid pocket probe competition), 30 min pre-incubation, TEAD2; details: His-tagged TEAD2, 30 minutes pre-incubation with compound at room temperature; read-out: Lipid HTRF TEAD2 IC50
T1 sequence (Q15562 whole entry, species assumed): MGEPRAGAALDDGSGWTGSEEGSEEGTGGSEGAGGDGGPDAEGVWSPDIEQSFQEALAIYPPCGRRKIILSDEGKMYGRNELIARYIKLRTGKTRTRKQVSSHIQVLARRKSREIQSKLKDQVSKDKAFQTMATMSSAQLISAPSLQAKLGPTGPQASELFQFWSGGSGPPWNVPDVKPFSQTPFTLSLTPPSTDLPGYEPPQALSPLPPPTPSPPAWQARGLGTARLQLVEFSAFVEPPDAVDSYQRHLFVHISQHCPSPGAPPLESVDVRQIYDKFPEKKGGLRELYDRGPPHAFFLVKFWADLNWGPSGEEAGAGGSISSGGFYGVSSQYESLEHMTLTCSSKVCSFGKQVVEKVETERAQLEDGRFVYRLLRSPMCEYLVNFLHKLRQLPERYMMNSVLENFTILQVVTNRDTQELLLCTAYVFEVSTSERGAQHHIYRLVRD
Description: as §1

TEAD3 = TEAD3 (Homo sapiens, UniProt Q99594); experiment: Lipid HTRF (TR-FRET lipid pocket probe competition), 30 min pre-incubation, TEAD3; details: His-tagged TEAD3, 30 minutes pre-incubation with compound at room temperature; read-out: Lipid HTRF TEAD3 IC50
TEAD3, sequence (Q99594 whole entry, species assumed): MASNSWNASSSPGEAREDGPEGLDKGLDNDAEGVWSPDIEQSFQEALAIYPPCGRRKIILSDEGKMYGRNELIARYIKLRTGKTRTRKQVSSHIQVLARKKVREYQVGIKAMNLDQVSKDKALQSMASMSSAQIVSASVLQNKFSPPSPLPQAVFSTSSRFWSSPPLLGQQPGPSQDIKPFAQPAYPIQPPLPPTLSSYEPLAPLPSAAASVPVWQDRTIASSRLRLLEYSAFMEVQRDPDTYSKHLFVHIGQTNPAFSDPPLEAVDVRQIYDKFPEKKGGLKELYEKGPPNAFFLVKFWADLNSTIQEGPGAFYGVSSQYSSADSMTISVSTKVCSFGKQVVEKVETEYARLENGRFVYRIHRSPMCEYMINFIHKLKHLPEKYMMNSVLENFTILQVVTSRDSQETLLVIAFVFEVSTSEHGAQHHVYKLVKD
Description: as §1

TEAD4 = TEAD4 (Homo sapiens, UniProt Q15561); experiment: Lipid HTRF (TR-FRET lipid pocket probe competition), 30 min pre-incubation, TEAD4; details: His-tagged TEAD4, 30 minutes pre-incubation with compound at room temperature; read-out: Lipid HTRF TEAD4 IC50
TEAD4, sequence (Q15561 whole entry, species assumed): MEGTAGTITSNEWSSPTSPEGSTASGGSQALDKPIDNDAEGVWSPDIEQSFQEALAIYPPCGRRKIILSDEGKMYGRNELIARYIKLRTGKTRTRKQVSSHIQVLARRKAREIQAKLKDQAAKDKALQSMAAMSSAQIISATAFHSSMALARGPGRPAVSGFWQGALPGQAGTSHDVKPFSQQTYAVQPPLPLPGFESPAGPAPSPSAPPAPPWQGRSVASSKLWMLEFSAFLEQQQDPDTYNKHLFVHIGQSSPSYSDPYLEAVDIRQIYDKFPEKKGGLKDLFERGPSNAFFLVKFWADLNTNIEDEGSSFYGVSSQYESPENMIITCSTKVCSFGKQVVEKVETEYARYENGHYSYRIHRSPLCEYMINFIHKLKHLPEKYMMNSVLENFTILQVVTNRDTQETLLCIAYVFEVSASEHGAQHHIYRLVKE
Description: as §1

TEAD2 [2] = target: T1, TEAD2; experiment: TEAD2 Lipid + 4 hr HTRF WUXI (TR-FRET lipid pocket probe competition, 4 h pre-incubation); details: 4 hours pre-incubation with compound at room temperature; Table 3
Description: His-tagged TEAD2 or 4 proteins are pre-incubated with TEAD project compounds for 4 hours at room temperature. Biotinylated lipid pocket probes are then added to the TEAD/Compound mixture and incubated for 60 minutes at room temperature. The lipid pocket probe competes with the test compound for the TEAD lipid pocket until equilibrium is reached. After 60 minutes, Europium labelled anti-His (Perkin Elmer #AD0110) and XL665 labelled streptavidin (CIS Bio 610SAXAC) are added to the TEAD/test compound/lipid pocket mixture and incubated for 30 minutes. TR-FRET values are then measured using an EnVision multi-label plate reader (Perkin Elmer Cat#2104-0010A.) If the lipid pocket probe binds to TEAD as expected, a TR-FRET signal results from the proximity of anti-His Eu and XL665. If a TEAD lipid pocket binder such as binds and displaces the lipid pocket probe, the disruption of the TEAD:probe interaction results in a decrease in TR-FRET signal. The potency of compounds as TEAD lipid pocket binders is determined by IC50 value generated using a non-linear 4 parameter curve fit.

TEAD1, sequence (P28347 whole entry, species assumed): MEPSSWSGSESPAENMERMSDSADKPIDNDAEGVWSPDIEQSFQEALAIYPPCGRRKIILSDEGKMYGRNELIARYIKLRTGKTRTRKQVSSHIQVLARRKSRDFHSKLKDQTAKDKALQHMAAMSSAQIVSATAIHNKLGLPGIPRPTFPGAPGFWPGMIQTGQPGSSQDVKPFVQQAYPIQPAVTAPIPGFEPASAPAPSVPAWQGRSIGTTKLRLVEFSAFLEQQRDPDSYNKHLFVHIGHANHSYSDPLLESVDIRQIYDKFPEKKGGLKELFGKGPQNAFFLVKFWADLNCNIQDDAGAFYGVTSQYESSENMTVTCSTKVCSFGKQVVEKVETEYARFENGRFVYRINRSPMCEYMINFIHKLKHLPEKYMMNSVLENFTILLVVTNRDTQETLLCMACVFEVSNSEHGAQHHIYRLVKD

Compound	IC50 (TEAD1)	IC50 (TEAD2 [1])	IC50 (TEAD3)	IC50 (TEAD4)	IC50 (TEAD2 [2])
C=CC(=O)Nc1cnc(OC)c(-c2ccc(C(C)C)cc2)c1 [Final product from Example 41, N-(5-(4-isopropylphenyl)-6-methoxypyridin-3-yl)acrylamide]	270 nM	1000 nM	690 nM	1500 nM	–
CC(C)c1ccc(-c2cc(NC(=O)[C@H]3CO3)c(C#N)c3c2OCC3)cc1 [Final product from Example 45, (R)-N-(4-cyano-7-(4-isopropylphenyl)-2,3-dihydrobenzofuran-5-yl)oxirane-2-carboxamide]	2900 nM	2800 nM	36000 nM	640 nM	–
CC(C)c1ccc(-c2cc(NC(=O)N(C)C#N)c(C#N)c3c2OCC3)cc1 [Final product from Example 46, 1-cyano-3-(4-cyano-7-(4-isopropylphenyl)-2,3-dihydrobenzofuran-5-yl)-1-methylurea]	170 nM	180 nM	1400 nM	70 nM	–
CC(C)c1ccc(-c2cc(N(C)C(=O)NC#N)c(C#N)c3c2OCC3)cc1 [Final product from Example 47, 3-cyano-1-[4-cyano-7-(4-isopropylphenyl)-2,3-dihydrobenzofuran-5-yl]-1-methyl-urea]	2900 nM	2700 nM	30000 nM	840 nM	–
CC(F)(F)c1ccc(-c2cc(NC(=O)[C@H]3CO3)c(C#N)c3c2OCC3)cc1 [Final product from Example 49, (R)-N-(4-cyano-7-(4-(1,1-difluoroethyl)phenyl)-2,3-dihydrobenzofuran-5-yl)oxirane-2-carboxamide]	2900 nM	4100 nM	9100 nM	1100 nM	–
N#Cc1c(NC(=O)[C@H]2CO2)cc(-c2ccc(OC(F)(F)F)cc2)c2c1CCO2 [Final product from Example 51, (R)-N-(4-Cyano-7-(4-(trifluoromethoxy)phenyl)-2,3-dihydrobenzofuran-5-yl)oxirane-2-carboxamide]	11000 nM	4200 nM	> 50000 nM	2200 nM	–
C=CC(=O)Nc1cc(-c2ccc(OC(F)(F)F)cc2)c2c(c1CO)CCO2 [Final product from Example 53, N-(4-(Hydroxymethyl)-7-(4-(trifluoromethoxy)phenyl)-2,3-dihydrobenzofuran-5-yl)acrylamide]	–	–	–	–	3.4 nM
C=CC(=O)Nc1cc(-c2ccc(S(F)(F)(F)(F)F)cc2)c2c(c1CO)CCO2 [Final product from Example 54, N-[4-(Hydroxymethyl)-7-[4-(pentafluoro-6-sulfanyl)phenyl]-2,3-dihydrobenzofuran-5-yl]prop-2-enamide]	–	–	–	–	8.6 nM
C=CC(=O)Nc1cc(-c2ccc(OC(F)(F)F)cc2)c2ncsc2c1C#N [Final product from Example 55, N-(7-Cyano-4-(4-(trifluoromethoxy)phenyl)benzo[d]thiazol-6-yl)acrylamide]	–	–	–	–	18.9 nM

Further molecules by falling IC50 (TEAD1), results first:

IC50 (TEAD1)	IC50 (TEAD2 [1])	IC50 (TEAD3)	IC50 (TEAD4)	IC50 (TEAD2 [2])	Compound
90 nM	70 nM	90 nM	100 nM	–	C=CC(=O)Nc1cnc2cccc(O[C@H]3CC[C@H](C(F)(F)F)CC3)c2c1 [Final product from Example 38, N-(5-((trans-4-(Trifluoromethyl)cyclohexyl)oxy)quinolin-3-yl)acrylamide]
90 nM	850 nM	160 nM	760 nM	–	C=CC(=O)Nc1cc(/C=C/C2CCC(F)(F)CC2)c2ocnc2c1 [Final product from Example 40, (E)-N-(7-(2-(4,4-Difluorocyclohexyl)vinyl)benzo[d]oxazol-5-yl)acrylamide]
60 nM	50 nM	70 nM	40 nM	–	C=CC(=O)Nc1cnc2ccnc(O[C@H]3CC[C@H](C(F)(F)F)CC3)c2c1 [Final product from Example 39, N-(5-((trans-4-(Trifluoromethyl)cyclohexyl)oxy)-1,6-naphthyridin-3-yl)acrylamide]
50 nM	60 nM	180 nM	90 nM	–	CC(F)(F)c1ccc(-c2cc(NC(=O)[C@@H]3CO3)c(C#N)c3c2OCC3)cc1 [Final product from Example 48, (S)-N-(4-cyano-7-(4-(1,1-difluoroethyl)phenyl)-2,3-dihydrobenzofuran-5-yl)oxirane-2-carboxamide]
40 nM	30 nM	140 nM	40 nM	–	CC(C)c1ccc(-c2cc(NC(=O)[C@@H]3CO3)c(C#N)c3c2OCC3)cc1 [Final product from Example 44, (S)-N-(4-cyano-7-(4-isopropylphenyl)-2,3-dihydrobenzofuran-5-yl)oxirane-2-carboxamide]
30 nM	40 nM	110 nM	50 nM	–	N#Cc1c(NC(=O)[C@@H]2CO2)cc(-c2ccc(OC(F)(F)F)cc2)c2c1CCO2 [Final product from Example 50, (S)-N-(4-cyano-7-(4-(trifluoromethoxy)phenyl)-2,3-dihydrobenzofuran-5-yl)oxirane-2-carboxamide]

Source: US20220281819A1, “THERAPEUTIC COMPOUNDS AND METHODS OF USE” (priority 2020, published 2022)
